In the supplement of paper PMC10307832:

How the values were obtained:
Assay in all cases: relative viability (nuclei count vs DMSO), 5 days (fraction); higher = more cells survive
[1] = system: NCI-H1650
Outline: (§1)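 Lung cancer cell lines were pin-tool dosed in 1536-well plates on the day after seeding, with either a lone drug or a fixed anchor-drug dose plus five library-drug doses (not always all listed) in √10 steps. Nuclei were counted on 4× images after 5 days. Relative viability is the ratio of treated-well to vehicle-well nuclei counts, with each value a median of duplicate plates.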

[2] = system: NCI-H2009
Outline: as §1

[3] = system: NCI-H1975
Outline: as §1

[4] = system: PC-3 [JPC-3]
Outline: as §1

[5] = system: EPLC-272H
Outline: as §1

[6] = system: NCI-H1651
Outline: as §1

[7] = system: NCI-H2170
Outline: as §1

[8] = system: NCI-H441
Outline: as §1

[9] = system: NCI-H2087
Outline: as §1

[10] = system: LC-2-ad
Outline: as §1

[11] = system: UMC-11
Outline: as §1

[12] = system: NCI-H2228
Outline: as §1

[13] = system: H3255
Outline: as §1

[14] = system: HARA
Outline: as §1

[15] = system: LOU-NH91
Outline: as §1

[16] = system: SW 1573
Outline: as §1

[17] = system: NCI-H23
Outline: as §1

[18] = system: NCI-H2085
Outline: as §1

[19] = system: NCI-H727
Outline: as §1

[20] = system: NCI-H2023
Outline: as §1

[21] = system: NCI-H838
Outline: as §1

[22] = system: SW 900
Outline: as §1

[23] = system: NCI-H650
Outline: as §1

Cc1csc(=NC2CCCCC2)n1/N=C/c1ccc(O)c(O)c1O [MIM1] + Cc1nc(Nc2ncc(C(=O)Nc3c(C)cccc3Cl)s2)cc(N2CCN(CCO)CC2)n1 [Dasatinib] (partner 0.075 µM)
relative viability ([1]; first compound 0.2 µM): 0.304 | relative viability ([1]; first compound 0.6325 µM): 0.316 | relative viability ([1]; first compound 2 µM): 0.24 | relative viability ([1]; first compound 6.325 µM): 0.186 | relative viability ([1]; first compound 20 µM): 0.159 | relative viability ([2]; first compound 0.2 µM): 0.303 | relative viability ([2]; first compound 0.6325 µM): 0.327 | relative viability ([2]; first compound 2 µM): 0.293 | relative viability ([2]; first compound 6.325 µM): 0.204 | relative viability ([2]; first compound 20 µM): 0.123 | relative viability ([3]; first compound 0.2 µM): 0.355 | relative viability ([3]; first compound 0.6325 µM): 0.377 | relative viability ([3]; first compound 2 µM): 0.346 | relative viability ([3]; first compound 6.325 µM): 0.185 | relative viability ([3]; first compound 20 µM): 0.17 | relative viability ([4]; first compound 0.2 µM): 1.03 | relative viability ([4]; first compound 0.6325 µM): 0.976 | relative viability ([4]; first compound 2 µM): 0.981 | relative viability ([4]; first compound 6.325 µM): 0.904 | relative viability ([4]; first compound 20 µM): 0.582 | relative viability ([5]; first compound 0.2 µM): 0.406 | relative viability ([5]; first compound 0.6325 µM): 0.305 | relative viability ([5]; first compound 2 µM): 0.328 | relative viability ([5]; first compound 6.325 µM): 0.312 | relative viability ([5]; first compound 20 µM): 0.0989 | relative viability ([6]; first compound 0.2 µM): 0.509 | relative viability ([6]; first compound 0.6325 µM): 0.464 | relative viability ([6]; first compound 2 µM): 0.458 | relative viability ([6]; first compound 6.325 µM): 0.282 | relative viability ([6]; first compound 20 µM): 0.182 | relative viability ([7]; first compound 0.2 µM): 0.569 | relative viability ([7]; first compound 0.6325 µM): 0.498 | relative viability ([7]; first compound 2 µM): 0.73 | relative viability ([7]; first compound 6.325 µM): 0.382 | relative viability ([7]; first compound 20 µM): 0.172 | relative viability ([8]; first compound 0.2 µM): 0.522 | relative viability ([8]; first compound 2 µM): 0.631 | relative viability ([8]; first compound 6.325 µM): 0.481 | relative viability ([8]; first compound 20 µM): 0.262 | relative viability ([9]; first compound 0.2 µM): 0.884 | relative viability ([9]; first compound 0.6325 µM): 0.843 | relative viability ([9]; first compound 2 µM): 1.02 | relative viability ([9]; first compound 6.325 µM): 0.685 | relative viability ([9]; first compound 20 µM): 0.625 | relative viability ([10]; first compound 0.2 µM): 0.834 | relative viability ([10]; first compound 0.6325 µM): 0.413 | relative viability ([10]; first compound 2 µM): 0.527 | relative viability ([10]; first compound 6.325 µM): 0.411 | relative viability ([10]; first compound 20 µM): 0.142 | relative viability ([11]; first compound 0.2 µM): 0.474 | relative viability ([11]; first compound 2 µM): 0.532 | relative viability ([11]; first compound 6.325 µM): 0.402 | relative viability ([11]; first compound 20 µM): 0.235 | relative viability ([12]; first compound 0.2 µM): 0.505 | relative viability ([12]; first compound 0.6325 µM): 0.524 | relative viability ([12]; first compound 2 µM): 0.66 | relative viability ([12]; first compound 6.325 µM): 0.205 | relative viability ([12]; first compound 20 µM): 0.0988 | relative viability ([13]; first compound 0.2 µM): 0.339 | relative viability ([13]; first compound 0.6325 µM): 0.343 | relative viability ([13]; first compound 2 µM): 0.334 | relative viability ([13]; first compound 6.325 µM): 0.344 | relative viability ([13]; first compound 20 µM): 0.255 | relative viability ([14]; first compound 0.2 µM): 0.216 | relative viability ([14]; first compound 2 µM): 0.228 | relative viability ([14]; first compound 6.325 µM): 0.24 | relative viability ([14]; first compound 20 µM): 0.181 | relative viability ([15]; first compound 0.2 µM): 0.502 | relative viability ([15]; first compound 0.6325 µM): 0.529 | relative viability ([15]; first compound 2 µM): 0.537 | relative viability ([15]; first compound 6.325 µM): 0.497 | relative viability ([15]; first compound 20 µM): 0.365 | relative viability ([16]; first compound 0.2 µM): 0.557 | relative viability ([16]; first compound 0.6325 µM): 0.558 | relative viability ([16]; first compound 2 µM): 0.413 | relative viability ([16]; first compound 6.325 µM): 0.244 | relative viability ([16]; first compound 20 µM): 0.0901 | relative viability ([17]; first compound 0.2 µM): 0.826 | relative viability ([17]; first compound 2 µM): 0.684 | relative viability ([17]; first compound 6.325 µM): 0.471 | relative viability ([17]; first compound 20 µM): 0.246 | relative viability ([18]; first compound 0.2 µM): 0.323 | relative viability ([18]; first compound 0.6325 µM): 0.251 | relative viability ([18]; first compound 2 µM): 0.261 | relative viability ([18]; first compound 6.325 µM): 0.241 | relative viability ([18]; first compound 20 µM): 0.253 | relative viability ([19]; first compound 0.2 µM): 0.383 | relative viability ([19]; first compound 0.6325 µM): 0.36 | relative viability ([19]; first compound 2 µM): 0.276 | relative viability ([19]; first compound 6.325 µM): 0.356 | relative viability ([19]; first compound 20 µM): 0.267 | relative viability ([20]; first compound 0.2 µM): 0.519 | relative viability ([20]; first compound 0.6325 µM): 0.719 | relative viability ([20]; first compound 2 µM): 0.435 | relative viability ([20]; first compound 6.325 µM): 0.249 | relative viability ([20]; first compound 20 µM): 0.0702 | relative viability ([21]; first compound 0.2 µM): 0.326 | relative viability ([21]; first compound 0.6325 µM): 0.298 | relative viability ([21]; first compound 6.325 µM): 0.314 | relative viability ([21]; first compound 20 µM): 0.218 | relative viability ([22]; first compound 0.2 µM): 0.619 | relative viability ([22]; first compound 0.6325 µM): 0.804 | relative viability ([22]; first compound 2 µM): 0.508 | relative viability ([22]; first compound 6.325 µM): 0.449 | relative viability ([22]; first compound 20 µM): 0.23 | relative viability ([23]; first compound 0.2 µM): 0.496 | relative viability ([23]; first compound 0.6325 µM): 0.435 | relative viability ([23]; first compound 2 µM): 0.459 | relative viability ([23]; first compound 6.325 µM): 0.416 | relative viability ([23]; first compound 20 µM): 0.301
